≈ marks a conversion by molar mass, not a printed value. Starred links: 1 amine or outer side, 2 acyl side, 3 side chain; linkers in the order of their positions; H or OH if unused. Positions of bridges follow the written chain, without caps; N, C: chain ends. Residues, ends and D or L forms follow the SMILES beside them. mXylylene = c1cc(C[*:1])cc(C[*:2])c1; pXylylene = c1cc(C[*:2])ccc1C[*:1]

Data set [1] is described as follows: 90 minute cytotoxicity assay (LDH release), renal toxicity. The class given is cell-based. The conditions noted are these: 90 minutes of incubation, LDH release; read-out: Inhibitory Concentration at 50% Cytotoxicity (IC50) Human Renal Proximal Tubule Epithelial Cells (RPTEC). The method in brief: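 Released lactate dehydrogenase, read as absorbance at 490 nm after 10 min with assay reagent, serves as read-out. Renal proximal tubule epithelial cells received peptide serial dilutions or vehicle for 90 min at 37° C after overnight plating.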

Data set [2] can be described thus: 48 hours cytotoxicity assay (CellTiter-Glo), liver toxicity. Format: cell-based, human. The conditions noted are these: 48 hours of incubation, CellTiter-Glo; read-out: Inhibitory Concentration at 50% Cytotoxicity (IC50) Human Liver Cells (HepG2). In short, it runs like this:
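Viability from CellTiter-Glo luminescence after StAMP dilution series or vehicle acted on HepG2 cells for 48 h at 37 °C. Cells were grown in EMEM plus 10% FBS and given 4 h to attach before dosing.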

Data set [3] concerns Pseudomonas aeruginosa (P. aeruginosa). Format: cell-based. The conditions noted are these: microbroth dilution, 20-24 hours at 37° C. The method in brief: (§1)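 Bacteria from overnight cultures, regrown 3-4 h, were added at 5×10^5 CFU/ml final to peptide serial dilutions in MHB or MHB II. Plates were incubated 20-24 h at 37° C. The minimum peptide concentration without visible growth was taken as MIC, per a CLSI-adapted microdilution protocol.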

Data set [4] concerns Escherichia coli (E. coli). The class given is cell-based. The conditions noted are these: microbroth dilution, 20-24 hours at 37° C. The method in brief:
as §1

Data set [5] concerns Staphylococcus aureus (S. aureus). The class given is cell-based. The conditions noted are these: microbroth dilution, 20-24 hours at 37° C. The method in brief:
as §1

In data set [6] the test system is Klebsiella pneumoniae (K. pneumoniae). Format: cell-based. The conditions noted are these: microbroth dilution, 20-24 hours at 37° C. In short, it runs like this: as §1
The subject of data set [7] is Acinetobacter baumannii (A. baumannii). The class given is cell-based. The conditions noted are these: microbroth dilution, 20-24 hours at 37° C. In short, it runs like this: as §1

Regarding `CC[C@H](C)[C@H](NC(=O)CN)C(=O)N[C@@H](Cc1ccccc1)C(=O)N[C@@H](CO)C(=O)N[C@@H](CCCCN)C(=O)N[C@@H](CC(C)C)C(=O)N[C@@H](C)C(=O)NCC(=O)N[C@@H](CCCCN)C(=O)N[C@@H](CCCCN)C(=O)N[C@H]1CSCc2cccc(c2)CSC[C@@H](C(=O)N[C@H](C(=O)N[C@@H](CO)C(=O)NCC(=O)N[C@@H](CC(C)C)C(=O)N[C@@H](CCCCN)C(=O)NCC(N)=O)[C@@H](C)CC)NC(=O)[C@H](CC(C)C)NC(=O)[C@H](CC(N)=O)NC(=O)[C@H](CCCCN)NC1=O` [compound 17] (H-GIFSKLAGKKCKNLCISGLKG-NH2; linker 11-15 via mXylylene), the IC50 in data set [1] and in data set [2] was above 200 µg/mL each time. Also, the “Minimum Inhibitory Concentration (MIC) P. aeruginosa” value in data set [3] was above 64 µg/mL. The “Minimum Inhibitory Concentration (MIC) E. coli” value in data set [4] was 64 µg/mL. In addition, the “Minimum Inhibitory Concentration (MIC) S. aureus” value in data set [5] is above 64 µg/mL. Also, in data set [6], the “Minimum Inhibitory Concentration (MIC) K. pneumoniae” value is above 64 µg/mL. For the same molecule, the “Minimum Inhibitory Concentration (MIC) A. baumannii” value in data set [7] is above 64 µg/mL.
With `CC[C@H](C)[C@H](NC(=O)CN)C(=O)N[C@@H](Cc1ccccc1)C(=O)N[C@@H](CO)C(=O)N[C@@H](CCCCN)C(=O)N[C@@H](CC(C)C)C(=O)N[C@@H](C)C(=O)NCC(=O)N[C@@H](CCCCN)C(=O)N[C@@H](CCCCN)C(=O)N[C@H](C(=O)N[C@H]1CSCc2ccc(cc2)CSC[C@@H](C(=O)N[C@@H](CO)C(=O)NCC(=O)N[C@@H](CC(C)C)C(=O)N[C@@H](CCCCN)C(=O)NCC(N)=O)NC(=O)[C@H](CC(C)C)NC(=O)[C@H](CC(C)C)NC(=O)[C@H](CC(N)=O)NC1=O)[C@@H](C)CC` [compound 21] (H-GIFSKLAGKKICNLLCSGLKG-NH2; linker 12-16 via pXylylene), the results for the IC50 in data set [1] and in data set [2] were 96 µg/mL (≈ 42.6 µM) and 200 µg/mL (≈ 88.8 µM), respectively. In addition, in data set [3], the “Minimum Inhibitory Concentration (MIC) P. aeruginosa” value was found to be 32 µg/mL. For the same molecule, the “Minimum Inhibitory Concentration (MIC) E. coli” value in data set [4] was 8 µg/mL. Besides, in data set [5], the “Minimum Inhibitory Concentration (MIC) S. aureus” value was above 64 µg/mL. For the same molecule, the “Minimum Inhibitory Concentration (MIC) K. pneumoniae” value in data set [6] came to 32 µg/mL. Besides, the “Minimum Inhibitory Concentration (MIC) A. baumannii” value in data set [7] was 16 µg/mL.
For the molecule `CC[C@H](C)[C@H](NC(=O)CN)C(=O)N[C@@H](Cc1ccccc1)C(=O)N[C@@H](CO)C(=O)N[C@@H](CCCCN)C(=O)N[C@@H](CC(C)C)C(=O)N[C@@H](C)C(=O)N[C@H]1CSCc2ccc(cc2)CSC[C@@H](C(=O)N[C@@H](CC(N)=O)C(=O)N[C@@H](CC(C)C)C(=O)N[C@@H](CC(C)C)C(=O)N[C@H](C(=O)N[C@@H](CO)C(=O)NCC(=O)N[C@@H](CC(C)C)C(=O)N[C@@H](CCCCN)C(=O)NCC(N)=O)[C@@H](C)CC)NC(=O)[C@H]([C@@H](C)CC)NC(=O)[C@H](CCCCN)NC(=O)[C@H](CCCCN)NC1=O` [compound 11] (H-GIFSKLACKKICNLLISGLKG-NH2; linker 8-12 via pXylylene), the IC50 in data set [1] is 16 µg/mL (≈ 6.93 µM); in data set [2] it was 23 µg/mL (≈ 9.97 µM). For the same molecule, the “Minimum Inhibitory Concentration (MIC) P. aeruginosa” value in data set [3] turned out to be 8 µg/mL. Further, the “Minimum Inhibitory Concentration (MIC) E. coli” value in data set [4] was 4 µg/mL. Also, in data set [5], the “Minimum Inhibitory Concentration (MIC) S. aureus” value is 32 µg/mL. In data set [6], the “Minimum Inhibitory Concentration (MIC) K. pneumoniae” value was 8 µg/mL. Moreover, the “Minimum Inhibitory Concentration (MIC) A. baumannii” value in data set [7] was found to be 4 µg/mL.
